Patent publication US12435092B2, “Substituted imidazo[1,2-A]quinazolines as inhibitors of PARG” (858 Therapeutics, Inc., priority 2022, dated 2025)

Molecular target: T1, cellular PARG (Homo sapiens, UniProt Q86W56)
T1 construct: endogenous in cells; host or cells: HeLa
Test: Nuclear PAR accumulation assay (immunofluorescence high-content imaging)
Format: cell-based
Settings: HeLa cells, 1 hour compound treatment then MMS 50 μg/mL for an additional hour
Outline: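 HeLa cells pretreated 1 h at 37 °C with compound, then 1 h with 50 μg/mL MMS (final), methanol-fixed and immunostained for PAR with DAPI nuclear counterstain. Nuclear PAR intensity and percent PAR-positive cells quantified by high-content imaging (≥1,000 cells/well). IC50 by four-parameter logistic fit, normalized to 0.1% DMSO and reference-compound controls.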

T1 sequence (Q86W56 whole entry): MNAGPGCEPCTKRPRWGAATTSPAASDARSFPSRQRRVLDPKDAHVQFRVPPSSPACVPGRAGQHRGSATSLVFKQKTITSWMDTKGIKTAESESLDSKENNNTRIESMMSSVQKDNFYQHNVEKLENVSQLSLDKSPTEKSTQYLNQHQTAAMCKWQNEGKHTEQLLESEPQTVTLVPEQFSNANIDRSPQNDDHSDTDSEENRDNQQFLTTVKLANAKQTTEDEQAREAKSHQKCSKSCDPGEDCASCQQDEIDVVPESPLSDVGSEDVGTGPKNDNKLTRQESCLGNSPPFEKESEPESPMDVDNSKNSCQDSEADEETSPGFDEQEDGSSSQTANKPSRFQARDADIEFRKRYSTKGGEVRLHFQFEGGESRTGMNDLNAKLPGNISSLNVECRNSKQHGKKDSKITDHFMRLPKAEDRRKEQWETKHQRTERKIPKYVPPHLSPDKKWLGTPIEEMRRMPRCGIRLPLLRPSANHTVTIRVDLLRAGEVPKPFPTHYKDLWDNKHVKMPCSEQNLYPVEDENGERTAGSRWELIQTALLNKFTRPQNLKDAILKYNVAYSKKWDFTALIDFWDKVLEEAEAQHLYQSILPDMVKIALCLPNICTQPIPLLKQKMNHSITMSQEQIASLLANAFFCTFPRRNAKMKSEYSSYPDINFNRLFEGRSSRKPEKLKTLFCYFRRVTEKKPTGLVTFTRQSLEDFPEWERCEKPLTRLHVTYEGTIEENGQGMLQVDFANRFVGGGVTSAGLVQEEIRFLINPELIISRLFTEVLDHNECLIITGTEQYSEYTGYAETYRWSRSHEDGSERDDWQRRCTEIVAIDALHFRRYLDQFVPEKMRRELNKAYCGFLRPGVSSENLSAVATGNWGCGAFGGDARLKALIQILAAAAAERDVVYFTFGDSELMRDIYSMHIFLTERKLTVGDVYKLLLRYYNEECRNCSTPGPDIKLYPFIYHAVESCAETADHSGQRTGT

With Cn1cc(CN2C(=O)c3cc(S(=O)(=O)NC4(C)CC4)ccc3N3CC(C)(C)N=C23)cn1 [Example 64, 2,2-dimethyl-4-((1-methyl-1H-pyrazol-4-yl)methyl)-N-(1-methylcyclopropyl)-5-oxo-1,2,4,5-tetrahydroimidazo[1,2-a]quinazoline-7-sulfonamide] the IC50 was ≤ 0.1 µM.
In the case of Cn1cc(CN2C(=O)c3cc(S(=O)(=O)NC4(C)CC4)ccc3N3C2=NC[C@H]3C(F)(F)F)cn1 [Example 65, (S)-1-trifluoromethyl-4-((1-methyl-1H-pyrazol-4-yl)methyl)-N-(1-methylcyclopropyl)-5-oxo-1,2,4,5-tetrahydroimidazo[1,2-a]quinazoline-7-sulfonamide], the IC50 is reported as ≤ 0.1 µM.
With C[C@@H]1CN=C2N(Cc3cnn(CC#N)c3)C(=O)c3cc(S(=O)(=O)NC4(C)CC4)ccc3N21 [Example 66, (R)-1-methyl-4-((1-cyanomethyl-1H-pyrazol-4-yl)methyl)-N-(1-methylcyclopropyl)-5-oxo-1,2,4,5-tetrahydroimidazo[1,2-a]quinazoline-7-sulfonamide] the IC50 was ≤ 0.1 µM.
Cc1noc(C)c1CN1C(=O)c2cc(S(=O)(=O)NC3(C)CC3)ccc2N2C1=NC[C@H]2C(C)C [Example 67, (R)-4-((3,5-dimethylisoxazol-4-yl)methyl)-1-isopropyl-N-(1-methylcyclopropyl)-5-oxo-1,2,4,5-tetrahydroimidazo[1,2-a]quinazoline-7-sulfonamide] was tested, and the IC50 was ≤ 0.1 µM.
Molecule Cc1noc(C)c1CN1C(=O)c2cc(S(=O)(=O)NC3(C)CC3)ccc2N2C1=NC[C@@H]2C(C)C [Example 68, (S)-4-((3,5-dimethylisoxazol-4-yl)methyl)-1-isopropyl-N-(1-methylcyclopropyl)-5-oxo-1,2,4,5-tetrahydroimidazo[1,2-a]quinazoline-7-sulfonamide] has an IC50 of 1 to 10 µM.
Cc1noc(C)c1CN1C(=O)c2cc(S(=O)(=O)NC3(C)CC3)ccc2N2C1=NC[C@H]2C1CC1 [Example 69, (R)-1-cyclopropyl-4-((3,5-dimethylisoxazol-4-yl)methyl)-N-(1-methylcyclopropyl)-5-oxo-1,2,4,5-tetrahydroimidazo[1,2-a]quinazoline-7-sulfonamide] was tested, and the IC50 was ≤ 0.1 µM.
Cc1noc(C)c1CN1C(=O)c2cc(S(=O)(=O)NC3(C)CC3)ccc2N2C1=NC[C@@H]2C1CC1 [Example 70, (S)-1-cyclopropyl-4-((3,5-dimethylisoxazol-4-yl)methyl)-N-(1-methylcyclopropyl)-5-oxo-1,2,4,5-tetrahydroimidazo[1,2-a]quinazoline-7-sulfonamide] showed an IC50 of 0.1 to 1 µM.
C#C[C@@H]1CN=C2N(Cc3c(C)noc3C)C(=O)c3cc(S(=O)(=O)NC4(C)CC4)ccc3N21 [Example 71, (R)-4-((3,5-dimethylisoxazol-4-yl)methyl)-1-ethynyl-N-(1-methylcyclopropyl)-5-oxo-1,2,4,5-tetrahydroimidazo[1,2-a]quinazoline-7-sulfonamide] was tested, and the IC50 was ≤ 0.1 µM.
For C#C[C@H]1CN=C2N(Cc3c(C)noc3C)C(=O)c3cc(S(=O)(=O)NC4(C)CC4)ccc3N21 [Example 72, (S)-4-((3,5-dimethylisoxazol-4-yl)methyl)-1-ethynyl-N-(1-methylcyclopropyl)-5-oxo-1,2,4,5-tetrahydroimidazo[1,2-a]quinazoline-7-sulfonamide], the IC50 was ≤ 0.1 µM.
In the case of Cc1nc(C)c(CN2C(=O)c3cc(S(=O)(=O)NC4(C)CC4)ccc3N3C2=NC[C@H]3C)s1 [Example 73, (R)-4-((2,4-dimethylthiazol-5-yl)methyl)-1-methyl-N-(1-methylcyclopropyl)-5-oxo-1,2,4,5-tetrahydroimidazo[1,2-a]quinazoline-7-sulfonamide], the IC50 is reported as ≤ 0.1 µM.
In the case of C[C@@H]1CN=C2N(Cc3cnn(C)c3)C(=O)c3cc(S(=O)(=O)NC4(C)CC4)c(F)cc3N21 [Example 74, (R)-8-fluoro-1-methyl-4-((1-methyl-1H-pyrazol-4-yl)methyl)-N-(1-methylcyclopropyl)-5-oxo-1,2,4,5-tetrahydroimidazo[1,2-a]quinazoline-7-sulfonamide], the IC50 is reported as ≤ 0.1 µM.
With C[C@H]1CCN=C2N(Cc3cnn(C)c3)C(=O)c3cc(S(=O)(=O)NC4(C)CC4)ccc3N21 [Example 75, (S)-1-methyl-5-((1-methyl-1H-pyrazol-4-yl)methyl)-N-(1-methylcyclopropyl)-6-oxo-2,3,5,6-tetrahydro-1H-pyrimido[1,2-a]quinazoline-8-sulfonamide] the IC50 was ≤ 0.1 µM.
For C[C@@H]1CCN=C2N(Cc3cnn(C)c3)C(=O)c3cc(S(=O)(=O)NC4(C)CC4)ccc3N21 [Example 76, (R)-1-methyl-5-((1-methyl-1H-pyrazol-4-yl)methyl)-N-(1-methylcyclopropyl)-6-oxo-2,3,5,6-tetrahydro-1H-pyrimido[1,2-a]quinazoline-8-sulfonamide], the IC50 was ≤ 0.1 µM.
In the case of COC[C@@H]1CN=C2N(Cc3cnn(C)c3)C(=O)c3cc(S(=O)(=O)NC4(C)CC4)ccc3N21 [Example 77, (S)-1-(methoxymethyl)-4-((1-methyl-1H-pyrazol-4-yl)methyl)-N-(1-methylcyclopropyl)-5-oxo-1,2,4,5-tetrahydroimidazo[1,2-a]quinazoline-7-sulfonamide], the IC50 is reported as ≤ 0.1 µM.
COC[C@H]1CN=C2N(Cc3cnn(C)c3)C(=O)c3cc(S(=O)(=O)NC4(C)CC4)ccc3N21 [Example 78, (R)-1-(methoxymethyl)-4-((1-methyl-1H-pyrazol-4-yl)methyl)-N-(1-methylcyclopropyl)-5-oxo-1,2,4,5-tetrahydroimidazo[1,2-a]quinazoline-7-sulfonamide] showed an IC50 of 0.1 to 1 µM.
Cn1cc(CN2C(=O)c3cc(S(=O)(=O)NC4(C)CC4)ccc3N3C2=N[C@H]2CCC[C@H]23)cn1 [Example 79, (7aS,10aR)-6-((1-methyl-1H-pyrazol-4-yl)methyl)-N-(1-methylcyclopropyl)-5-oxo-6,7a,8,9,10,10a-hexahydro-5H-cyclopenta[4,5]imidazo[1,2-a]quinazoline-3-sulfonamide] was tested, and the IC50 was ≤ 0.1 µM.
For Cc1nn(C)cc1CN1C(=O)c2cc(S(=O)(=O)NC3(C)CC3)ccc2N2C1=NC[C@H]2C [Example 80, (R)-4-((1,3-dimethyl-1H-pyrazol-4-yl)methyl)-1-methyl-N-(1-methylcyclopropyl)-5-oxo-1,2,4,5-tetrahydroimidazo[1,2-a]quinazoline-7-sulfonamide], the IC50 was ≤ 0.1 µM.
Cc1c(CN2C(=O)c3cc(S(=O)(=O)NC4(C)CC4)ccc3N3C2=NC[C@H]3C)cnn1C [Example 81, (R)-4-((1,5-dimethyl-1H-pyrazol-4-yl)methyl)-1-methyl-N-(1-methylcyclopropyl)-5-oxo-1,2,4,5-tetrahydroimidazo[1,2-a]quinazoline-7-sulfonamide] was tested, and the IC50 was ≤ 0.1 µM.
Work on Cc1nc(C)c([C@@H]2CN=C3N(CC4CC4)C(=O)c4cc(S(=O)(=O)NC5(C)CC5)ccc4N32)s1 [Example 82, (S)-4-(cyclopropylmethyl)-1-(2,4-dimethylthiazol-5-yl)-N-(1-methylcyclopropyl)-5-oxo-1,2,4,5-tetrahydroimidazo[1,2-a]quinazoline-7-sulfonamide] yielded an IC50 of 0.1 to 1 µM.
With Cn1cc(CN2C(=O)c3cc(S(=O)(=O)NC4(C)CC4)ccc3N3C2=NC[C@H]3C#CC2CC2)cn1 [Example 83, (R)-1-(cyclopropylethynyl)-4-((1-methyl-1H-pyrazol-4-yl)methyl)-N-(1-methylcyclopropyl)-5-oxo-1,2,4,5-tetrahydroimidazo[1,2-a]quinazoline-7-sulfonamide] the IC50 was ≤ 0.1 µM.
